# The source made the active and inactive calls. The calls are words filed in the database; no cut-off is given here.
# Key:
# A549 [1] = assay: Induction of apoptosis in human A549 cells assessed as necrotic cells at 2.5 nM measured after 24 hrs by Annexin V-FITC/propidium iodide staining based flow cytometry (reference value: 0.508%); type: functional
# HeLa = assay: Antiproliferative activity against human HeLa cells assessed as reduction in cell growth after 48 hrs by MTT assay; type: functional, cell-based
# A549 [2] = assay: Induction of apoptosis in human A549 cells assessed as apoptotic cells upto 10 nM measured after 24 hrs by Annexin V-FITC/propidium iodide staining based flow cytometry; type: functional, cell-based; settings: dose nM <=10, time 24.0 hrs
# [3] = Antitumor activity against human A549 cells xenografted in BALB/c mouse assessed as tumor growth inhibition at 60 mg/kg, ip measured every 2 days upto 30 days relative to control; type: functional; design: scale not given: the % may be the effect or the level left; settings: time 30 day
# MCF7 = assay: Antiproliferative activity against human MCF7 cells assessed as reduction in cell growth after 48 hrs by MTT assay; type: functional, cell-based; settings: MCF7, 48 h
# A549 [4] = assay: Induction of apoptosis in human A549 cells assessed as late apoptotic cells at 10 nM measured after 24 hrs by Annexin V-FITC/propidium iodide staining based flow cytometry (reference value: 1.51%); type: functional
# Tubulin = assay: Inhibition of tubulin polymerization in human A549 cells assessed as disruption of microtubule organization at 50 nM incubated for 6 hrs by immunofluorescent staining; type: cell-based
# A549 [5] = assay: Induction of cell cycle arrest in human A549 cells assessed as increase in p-cdc2 expression upto 10 nM incubated for 24 hrs by Western blot analysis; type: functional, cell-based; settings: dose nM <=10, time 24.0 hrs
# [6] = Antitumor activity against human A549 cells xenografted in BALB/c mouse assessed as tumor volume at 8 mg/kg, ip measured for every 2 days upto 30 days (reference value: 652.13 mm^3); type: functional; settings: time 2 day
# [7] = Toxicity in BALB/c mouse xenografted with human A549 cells assessed as change in body weight at 60 mg/kg, ip measured after 30 days; type: organism-based; settings: in vivo, 720 h, time 30 day
# A549 [8] = assay: Antiproliferative activity against cisplatin resistant human A549 cells assessed as reduction in cell growth after 48 hrs by MTT assay; type: functional, cell-based; settings: A549, 48 h
# HEK293 = assay: Cytotoxicity against HEK293 cells assessed as reduction in cell growth after 48 hrs by MTT assay; type: cell-based; settings: Homo sapiens, HEK293, 48 h
# A549 [9] = assay: Induction of apoptosis in human A549 cells assessed as necrotic cells at 5 nM measured after 24 hrs by Annexin V-FITC/propidium iodide staining based flow cytometry (reference value: 0.508%); type: functional
# [10] = Antitumor activity against human A549 cells xenografted in BALB/c mouse assessed as tumor weight at 15 mg/kg, ip measured every 2 days upto 30 days (reference value: 0.563 g); type: functional; settings: time 2 day
# A2780 = assay: Antiproliferative activity against paclitaxel-resistant human A2780 cells assessed as reduction in cell growth after 48 hrs by MTT assay; type: functional, cell-based; settings: A2780, 48 h
# A549 [11] = assay: Induction of cell cycle arrest in human A549 cells assessed as accumulation at G2/M phase upto 20 nM incubated for 24 hrs by flow cytometry; type: functional, cell-based; settings: dose nM <=20, time 24.0 hrs
# A549 [12] = assay: Induction of apoptosis in human A549 cells assessed as late apoptotic cells at 5 nM measured after 24 hrs by Annexin V-FITC/propidium iodide staining based flow cytometry (reference value: 1.51%); type: functional
# A549 [13] = assay: Induction of apoptosis in human A549 cells assessed as viable cells at 2.5 nM measured after 24 hrs by Annexin V-FITC/propidium iodide staining based flow cytometry (reference value: 95.3%); type: functional; settings: read-out: Activity
# A549 [14] = assay: Induction of apoptosis in human A549 cells assessed as early apoptotic cells at 2.5 nM measured after 24 hrs by Annexin V-FITC/propidium iodide staining based flow cytometry (reference value: 2.72%); type: functional
# A549 [15] = assay: Induction of cell cycle arrest in human A549 cells assessed as inhibition of p-cdc2/cyclin B1 activity incubated for 24 hrs by Western blot analysis; type: functional, cell-based
# Sus scrofa = organism: Sus scrofa; assay: (§1) Inhibition of porcine brain tubulin polymerization measured for 20 mins by spectrometric assay; type: tissue-based
# [16] = as §1; type: tissue-based, Sus scrofa
# A549 [17] = assay: Induction of apoptosis in human A549 cells assessed as viable cells at 5 nM measured after 24 hrs by Annexin V-FITC/propidium iodide staining based flow cytometry (reference value: 95.3%); type: functional; settings: read-out: Activity
# [18] = Antitumor activity against human A549 cells xenografted in BALB/c mouse assessed as tumor weight at 60 mg/kg, ip measured every 2 days upto 30 days (reference value: 0.563 g); type: functional; settings: time 2 day
# [19] = Antitumor activity against human A549 cells xenografted in BALB/c mouse assessed as tumor growth inhibition at 8 mg/kg, ip measured every 2 days for every 2 days upto 30 days relative to control; type: functional; design: scale not given: the % may be the effect or the level left; settings: time 2 day
# A549 [20] = assay: Induction of apoptosis in human A549 cells assessed as early apoptotic cells at 10 nM measured after 24 hrs by Annexin V-FITC/propidium iodide staining based flow cytometry (reference value: 2.72%); type: functional
# [21] = Antitumor activity against human A549 cells xenografted in BALB/c mouse assessed as tumor growth inhibition at 15 mg/kg, ip measured every 2 days upto 30 days relative to control; type: functional; design: scale not given: the % may be the effect or the level left; settings: time 30 day
# A549 [22] = assay: Induction of apoptosis in human A549 cells assessed as decrease in Bcl2 level upto 10 nM incubated for 24 hrs by Western blot analysis; type: functional, cell-based; settings: dose nM <=10, time 24.0 hrs
# A549 [23] = assay: Induction of apoptosis in human A549 cells assessed as increase in cleaved caspase-3 level incubated for 24 hrs by Western blot analysis; type: functional, cell-based; settings: dose nM <=10, time 24.0 hrs
# A549 [24] = assay: Antiproliferative activity against human A549 cells assessed as reduction in cell growth after 48 hrs by MTT assay; type: functional, cell-based; settings: A549, 48 h
# A549 [25] = assay: Induction of apoptosis in human A549 cells assessed as viable cells at 10 nM measured after 24 hrs by Annexin V-FITC/propidium iodide staining based flow cytometry (reference value: 95.3%); type: functional; settings: read-out: Activity
# [26] = Antitumor activity against human A549 cells xenografted in BALB/c mouse assessed as tumor volume at 60 mg/kg, ip measured for every 2 days upto 30 days (reference value: 652.13 mm^3); type: functional; settings: time 2 day
# A549 [27] = assay: Induction of apoptosis in human A549 cells assessed as early apoptotic cells at 5 nM measured after 24 hrs by Annexin V-FITC/propidium iodide staining based flow cytometry (reference value: 2.72%); type: functional
# A549 [28] = assay: Induction of cell cycle arrest in human A549 cells assessed as accumulation at G2/M phase at 20 nM incubated for 24 hrs by flow cytometry relative to control; type: functional
# [29] = Antitumor activity against human A549 cells xenografted in BALB/c mouse assessed as tumor volume at 15 mg/kg, ip measured for every 2 days upto 30 days (reference value: 652.13 mm^3); type: functional; settings: time 2 day
# A549 [30] = assay: Induction of apoptosis in human A549 cells assessed as late apoptotic cells at 2.5 nM measured after 24 hrs by Annexin V-FITC/propidium iodide staining based flow cytometry (reference value: 1.51%); type: functional
# A549 [31] = assay: Induction of apoptosis in human A549 cells assessed as necrotic cells at 10 nM measured after 24 hrs by Annexin V-FITC/propidium iodide staining based flow cytometry (reference value: 0.508%); type: functional
# A549 [32] = assay: Induction of apoptosis in human A549 cells assessed as increase in cleaved PARP level incubated for 24 hrs by Western blot analysis; type: functional, cell-based; settings: dose nM <=10, time 24.0 hrs
# HT-29 = assay: Antiproliferative activity against human HT-29 cells assessed as reduction in cell growth after 48 hrs by MTT assay; type: functional, cell-based; settings: HT-29, 48 h
# [33] = Toxicity in BALB/c mouse xenografted with human A549 cells assessed as change in body weight at 15 mg/kg, ip measured after 30 days; type: organism-based; settings: in vivo, 720 h, time 30 day
# [34] = Antitumor activity against human A549 cells xenografted in BALB/c mouse assessed as tumor weight at 8 mg/kg, ip measured every 2 days for every 2 days upto 30 days (reference value: 0.563 g); type: functional; settings: time 2 day
smiles,measurement,setting,value
COc1cc(-c2nnc3n2N=C(c2ccc(C)cc2)CS3)cc(OC)c1OC,Activity,A549 [1],0.529%
same,IC50,HeLa,4 nM
same,Activity,A549 [2],Dose-dependent effect
same,Activity,[3],44.4%
same,IC50,MCF7,98 nM
same,Activity,A549 [4],13.1%
same,IC50,Tubulin,Active
same,Activity,A549 [5],Dose-dependent effect
same,Activity,[6],264 mm3
same,Activity,[7],Non-Toxic
same,IC50,A549 [8],3950 nM
same,IC50,HEK293,> 100000 nM
same,Activity,A549 [9],0.694%
same,Activity,[10],0.397 g
same,IC50,A2780,18800 nM
same,Activity,A549 [11],Dose-dependent effect
same,Activity,A549 [12],9.97%
same,viability at 0.0025 µM,A549 [13],88.8%
same,Activity,A549 [14],5.36%
same,Activity,A549 [15],Active
same,inhibition,Sus scrofa,Dose-dependent effect
same,IC50,[16],1690 nM
same,viability at 0.005 µM,A549 [17],82.8%
same,Activity,[18],0.313 g
same,Activity,[19],58.4%
same,Activity,A549 [20],8.66%
same,Activity,[21],29.5%
same,Activity,A549 [22],Active
same,Activity,A549 [23],Dose-dependent effect
same,IC50,A549 [24],50 nM
same,viability at 0.01 µM,A549 [25],77.6%
same,Activity,[26],354.12 mm3
same,Activity,A549 [27],6.58%
same,Activity,A549 [28],91.56%
same,Activity,[29],449.88 mm3
same,Activity,A549 [30],5.36%
same,Activity,A549 [31],0.666%
same,Activity,A549 [32],Dose-dependent effect
same,IC50,HT-29,23 nM
same,Activity,[33],Non-Toxic
same,Activity,[34],0.234 g

# From ChEMBL document CHEMBL4706609, “Development of triazolothiadiazine derivatives as highly potent tubulin polymerization inhibitors: Structure-activity relationship, in vitro and in vivo study” (Eur J Med Chem, 2020)
